For 7 compounds, Observed efficacy results are on record in patent US20120021905A1, “Pesticidal Mixtures” (priority 2009, published 2012).

Read-outs that look alike come from different tables or passages of the source.

Settings in all cases: 7 days after inoculation, 405 nm
In one assay the test system is Pyricularia oryzae. The class given is cell-based.
For another assay, the system named is Septoria tritici.
A further assay relates to Botrytis cinerea. In words: Microtest: activity against the grey mold Botrytis cinerea in the microtiterplate test (Botrci). Type of assay: cell-based.

With `O=[N+]([O-])NC1=NCCN1Cc1ccc(Cl)nc1` [Imidacloprid, imidacloprid], the Observed efficacy in the assay on Pyricularia oryzae (63 ppm) was found to be 0; in the assay with Septoria tritici (4 ppm) it was 2.

Consider `COC(=O)N(OC)c1ccccc1COc1ccn(-c2ccc(Cl)cc2)n1` [Pyraclostrobin], for which the Observed efficacy with Pyricularia oryzae (0.001 ppm) turned out to be 21; in the assay on Septoria tritici (0.004 ppm) it was 49.

In turn, `C/C(=N\C#N)N(C)Cc1ccc(Cl)nc1` [acetamipyrid] returned an Observed efficacy in the assay on Pyricularia oryzae (63 ppm) of 0.

For the compound `CN/C(=N\[N+](=O)[O-])NCc1cnc(Cl)s1` [clothianidin], the Observed efficacy with Botrytis cinerea (16 ppm) came out at 0.

On to `N#Cc1nn(-c2c(Cl)cc(C(F)(F)F)cc2Cl)c(N)c1[S+]([O-])C(F)(F)F` (stereo not drawn) [fipronil], for which the Observed efficacy with Botrytis cinerea (0.016 ppm) and in the assay on Pyricularia oryzae (0.063 ppm) was 0 in each case.

`COCC(=O)N(c1c(C)cccc1C)C(C)C(=O)OC` (stereo not drawn) [metalaxyl, Metalaxyl]: the Observed efficacy with Pyricularia oryzae (4 ppm) amounted to 0.

For the compound `CN1COCN(Cc2cnc(Cl)s2)/C1=N\[N+](=O)[O-]` [thiamethoxam], the Observed efficacy is on record as 0 with Botrytis cinerea (16 ppm), 41 in the assay on Pyricularia oryzae (1 ppm) and 62 in the assay with Septoria tritici (1 ppm).
